Data on 10 compounds can be found in ChEMBL document CHEMBL1132125, “Synthesis of phosphonate 3-phthalidyl esters as prodrugs for potential intracellular delivery of phosphonates” (Bioorg Med Chem Lett, 1999).

The species entered for data set [1] is Rattus norvegicus. As to the kind of experiment: Intracellular concentration of 1-naphthalenemethylphosphonate (NMPA) in isolated rat hepatocytes was measured after 15 min of incubation. The following applies: Hepatocyte. The data set is classed as functional.
Data set [2] is described as follows: Half-life period of compound was measured in rat plasma. The data set is classed as ADME.

SMILES strings stand for the structures.

The term half-life denotes how long it takes for the measured level to halve. Low values mean rapid decline, high ones slow decline. Compound `CCOc1cccc2c1C(=O)OC2OP(=O)(Cc1cccc2ccccc12)OC1OC(=O)c2c(OCC)cccc21` (configuration not stated) came in with a Concentration in data set [1] of 208 µM. Moreover, in data set [2], the half-life turned out to be 2 min.
`O=P(O)(O)Cc1cccc2ccccc12`: in data set [1], the Concentration came to 0 µM.
Regarding `COc1cccc2c1C(=O)OC2OP(=O)(Cc1cccc2ccccc12)OC1OC(=O)c2c(OC)cccc21` (configuration not stated), the Concentration in data set [1] was 336 µM. In data set [2], the half-life is 2 min.
In turn, `COc1cccc2c1C(OP(=O)(Cc1cccc3ccccc13)OC1OC(=O)c3cccc(OC)c31)OC2=O` (configuration not stated) came in with a Concentration in data set [1] of 0 µM.
On to `O=C1OC(OP(=O)(Cc2cccc3ccccc23)OC2OC(=O)c3c(Cl)ccc(Cl)c32)c2c(Cl)ccc(Cl)c21` (configuration not stated), for which the Concentration in data set [1] stood at 78 µM. The same compound gave a half-life in data set [2] of 0.1 min.
In the same order, the values of `COc1ccc2c(c1)C(OP(=O)(Cc1cccc3ccccc13)OC1OC(=O)c3ccc(OC)cc31)OC2=O` (configuration not stated) are 428 µM and 0.5 min.
On to `O=C1OC(OP(=O)(Cc2cccc3ccccc23)OC2OC(=O)c3ccccc32)c2ccccc21` (configuration not stated), for which the Concentration in data set [1] stood at 500 µM. Further, the half-life in data set [2] is 0.5 min.
For `COc1cc(OC)c2c(c1)C(OP(=O)(Cc1cccc3ccccc13)OC1OC(=O)c3c(OC)cc(OC)cc31)OC2=O` (configuration not stated), the Concentration in data set [1] turned out to be 359 µM.
For the compound `COc1cc2c(c(OC)c1OC)C(=O)OC2OP(=O)(Cc1cccc2ccccc12)OC1OC(=O)c2c1cc(OC)c(OC)c2OC` (configuration not stated), in data set [1], the Concentration was 246 µM. This compound came in with a half-life in data set [2] of 5 min.
`Cc1ccc2c(c1-c1ccccc1)C(=O)OC2OP(=O)(Cc1cccc2ccccc12)OC1OC(=O)c2c1ccc(C)c2-c1ccccc1` (configuration not stated) had a Concentration in data set [1] of 20 µM. The half-life in data set [2] came out at 10 min.
